Data on 7 compounds can be found in US8421457B2, “Methods and systems for magnetically resonating both a subject and a substance administered to the subject” (Applied Magnetics, LLC, priority 2008, dated 2013).

The subject of one series is cancer patients. The conditions noted are these: in vivo.
A further series relates to osteoarthritis patients. The following applies: for results of continuing treatment / stiffness in hand, before treatment / pain in thumb, before treatment: person, taking the drugs; for results of continuing treatment: back pain (degenerative disk disease, sciatica), resonated approx. three times per week for more than one year; for stiffness in hand, before treatment / pain in thumb, before treatment: osteoarthritis, before MR; for stiffness in hand, before treatment: scale zero (feels great) to ten (feels terrible). An excerpt: In one example, a person suffered from back pain due to degenerative disk disease in their low back and sciatica. […] The subject was resonated approximately three times per week for more than one year.
In another example, a person experienced arthritis pain in a number of joints, including their hips, hands, and shoulders. The subject also suffered from sciatica in their hips and legs. The subject was taking Celebrex. The subject was resonated at least three times per week for one to two hours per session.
In a further example, a person experienced osteoarthritis pain and stiffness in their hands and finger joints. […] The subject was resonated twice for one-half hour per treatment. The subject was asked to rate their pain on a scale of zero (feels great) to ten (feels terrible) before and after treatment.
Alternatively, an amplitude of about 0.01 μG to about 0.46 μG, with a frequency of about 0.2799 Hz to about 12.8765 Hz may be used.

A further series relates to subject with back pain. Briefly: Case reports: low back pain, drugs combined with MR treatment. Format: in vivo, human. The following applies: person, taking the drugs; for decrease in pain level and stiffness level: four one-hour MR treatments over eleven days; for decrease in stiffness level: one MR treatment of one hour. An excerpt: In one example, a person experienced pain and stiffness associated with their low back. The subject was taking Aspirin and Ibuprofen. Over the course of ten days, the subject received three treatments. The result was a decrease in pain level of 50-100%.
In another example, a person experienced pain and stiffness associated with their low back. The subject was taking Aspirin and Ibuprofen. Over the course of eleven days, the subject received four treatments, each lasting one hour. The result was a decrease in pain level and stiffness level of 75%.
In another example, a person experienced pain and stiffness associated with their low back. The subject was taking Aspirin and Ibuprofen. The subject received one treatment, lasting one hour. The result was a decrease in pain level of 60-70% and stiffness level of 90%.
In providing MR treatment to a subject with back pain, an amplitude of about 0.01 μG to about 0.457 μG, with a frequency of about 0.2799 Hz to about 12.8 Hz may be used.

In series [1] the test system is migraine and headache patients. Put plainly: Case reports: migraine and headache drugs combined with MR treatment. Format: in vivo, human.
Experimental: The subject was resonated ten times for 1 to 1.5 hours per treatment over a one-month period.
In another example, a person experienced pain associated with migraines. […] The subject received two one-hour treatments three months apart.
In a further example, a person experienced pain associated with severe headaches. The subject took Aspirin to treat the pain. The subject received one treatment for one hour.
A further series deals with injured patients. Briefly: Case reports: injuries, drugs combined with MR treatment. It counts as in vivo, human. The following applies: person, taking the drugs; for elimination of pain and stiffness: injured right knee (old Meniscus tear), 3 MR treatments of 1 hour over 5 days. An excerpt:
In another example, a person experienced pain and stiffness associated with a shoulder injury. The subject was taking Aspirin and Ibuprofin. The subject received two one-hour treatments three days apart. The result was a decrease in pain level of 50% and a decrease in stiffness of 50%.
In a further example, a person experienced pain and stiffness associated with an injured knee. The subject was taking Aspirin and Ibuprofin. Over the course of 5 days, the subject received 3 treatments, each lasting 1.5 hours. The result was a decrease in pain level of 50-100% and a decrease in stiffness of 50%.
In a further example, a person experienced pain and stiffness associated with an injured right knee that was the result of an old Meniscus tear injury. The subject was taking Aspirin and Ibuprofin. Over the course of 5 days, the subject received 3 treatments, each lasting 1 hour. The result was a 100% elimination of their pain an stiffness.
In another example, a person experienced pain and stiffness associated with an injured left knee. The subject was taking Aspirin and Ibuprofin. Over the course of three days, the subject received two treatments, each lasting one hour. The result was a decrease in pain level of 75% and a decrease in stiffness of 50%.
In providing MR treatment to a subject with pain and/or one or more injuries, an amplitude of about 0.01 μG to about 0.5 μG, with a frequency of about 0.2799 Hz to about 14.0 Hz may be used.

The test system of series [2] is patients with high cholesterol. Put plainly: Case report: cholesterol drug combined with MR treatment. It counts as in vivo, human. The conditions noted are these: person taking Lipitor; three MR treatments per week for twenty months. The protocol:
In one example, a person was taking the drug Lipitor to manage their cholesterol levels. The subject began a series of three treatments per week for twenty months, and continuing on an ongoing basis. […] In order to provide MR treatment for cholesterol, the MR device settings may range from an amplitude from about 0.4998 μG to about 0.075 μG and a frequency from about 2.1 Hz to about 13.9996 Hz, or ranges within these ranges.

Series [3] deals with diabetic peripheral neuropathy patients. Put plainly: Case report: diabetic neuropathy drugs combined with MR treatment. Format: in vivo, human. The following applies: diabetic neuropathy in both feet, taking the drugs; resonated four times for one hour each. An excerpt: In one subject, a person suffered with diabetic neuropathy in both feet. […] The subject was taking the drugs Actos, Metaformin, and Lisinopril. The subject was resonated four times for one hour each time. […] As of fifteen months after the last treatment session, the sensation remained. Also, the subjects from Example 5 reported improvements with respect to symptoms relating to diabetic neuropathy (e.g., lack of sensation and pain).
In providing MR treatment to a subject with diabetic neuropathy, an amplitude of about 0.455 μG to about 0.53 μG, with a frequency of about 12.7 Hz to about 14.84 Hz may be used.

The test system of another series is fibromyalgia patients. Put plainly: Case reports: fibromyalgia, drugs combined with MR treatment. Format: in vivo, human. The conditions noted are these: same subject; thirteen MR treatments within a two-month period. The protocol:
In one example, a person experienced fibromyalgia for a number of years. The subject also experienced insomnia, restless legs, and chronic fatigue. The subject took the drug Naproxen (Aleve). The subject received seven consecutive days of 1 to 1.5 hour treatments.
Their primary complaint was back pain. […] The subject received thirteen treatments within a two-month period. […] Approximately two months after completing their first series of treatment, they began a second regimen of ten treatments within a two-month period.
In a further example, a person at least fifty years old suffered from fibromyalgia for a number of years. […] The subject received daily (when possible) treatments for approximately one year.

The mark [4] stands for this setting: same subject, after being resonated twice for one-half hour per treatment, scale zero to ten.
Setting [5] is: injured knee, 3 MR treatments of 1.5 hours over 5 days.
Where [6] appears, read: injured left knee, two one-hour MR treatments over three days.
The mark [7] stands for this setting: shoulder injury, two one-hour MR treatments three days apart.

Molecules are shown by their SMILES.

Experimental for cancer patients: In one example, carboplaton and taxol are cancer drugs for treating cancer, including ovarian cancer.
For this protocol, the MR device settings may be, for example, amplitude=about 0.017 μG to about 0.3 μG, frequency=about 0.3 Hz to about 9.6 Hz, waveform=sine or square, and MR treatment duration=about 80 minutes.

As to `N.N.O=C([O-])C1(C(=O)[O-])CCC1.[Pt+2]` [carboplaton], in the series on cancer patients, the “reported effects after taking the cancer drugs” value was “increased lethargy and decreased energy and motivation”.
Take `CC(=O)Oc1ccccc1C(=O)O` [Aspirin]: in the series with osteoarthritis patients, the “results of continuing treatment” value is “significantly less pain, an improved range of motion, and improved sleep”; the “stiffness in hand, before treatment” value is recorded as “two”. Besides, the “pain in thumb, before treatment” value with osteoarthritis patients (scale zero to ten) is “three”. In the series on osteoarthritis patients (setting [4]), the “pain in thumb, after treatment” value is “zero” and the “stiffness in hand, after treatment” value was “zero”. Further, in the series with subject with back pain, the “decrease in pain level and stiffness level” value is 75%; the “decrease in stiffness level” value stood at 90%. The pain before treatment in series [1] (person, severe headaches, taking Aspirin, before MR) is listed as 6.5. Besides, in series [1] (same subject, after one MR treatment for one hour), the pain after treatment entry is given as “zero”. The decrease in stiffness in the series on injured patients (setting [5]) came out at 50%. Moreover, in the series on injured patients (setting [6]), the “decrease in pain level” value was 75% and the decrease in stiffness stood at 50%. Moreover, in the series on injured patients, the “elimination of pain and stiffness” value is on record as 100%. Besides, in the series with injured patients (setting [7]), the “decrease in pain level” value was 50% and the decrease in stiffness worked out at 50%.
`CC(C)c1c(C(=O)Nc2ccccc2)c(-c2ccccc2)c(-c2ccc(F)cc2)n1CC[C@@H](O)C[C@@H](O)CC(=O)O` [Lipitor]: the cholesterol levels entry in series [2] was “at the best ratio in twenty years”.
`CN(C)C(=N)NC(=N)N` [Metaformin]: in series [3], the “result of treatment on sensation in feet” value was “sensation returned for touch, texture, and temperature”.
As for `NCCCC[C@H](N[C@@H](CCc1ccccc1)C(=O)O)C(=O)N1CCC[C@H]1C(=O)O` [Lisinopril], the “result of treatment on sensation in feet” value in series [3] is “sensation returned for touch, texture, and temperature”. The “pain level after treatment, first series” value in the series with fibromyalgia patients stood at 0.5.
For the compound `CC(C)Cc1ccc(C(C)C(=O)O)cc1` (stereo not drawn) [Ibuprofin], in the series with osteoarthritis patients, the “results of continuing treatment” value was “significantly less pain, an improved range of motion, and improved sleep”; the “stiffness in hand, before treatment” value is given as “two”. In addition, in the series with osteoarthritis patients (scale zero to ten), the “pain in thumb, before treatment” value is reported as “three”. For the same compound, in the series on subject with back pain, the “decrease in pain level and stiffness level” value amounted to 75%; the “decrease in stiffness level” value is reported as 90%. The results on migraines in series [1] (person with migraines taking the drugs, resonated ten times, 1 to 1.5 hours, over one month) is “decreased frequency and duration of migraines”. In series [1] (person with migraines taking the drugs, scale of zero to ten), the “pain level before being resonated” value is recorded as “nine”. Moreover, the “reduction in pain level” value in series [1] (person with migraines taking the drugs, two one-hour MR treatments three months apart) worked out at 50%. Further, in series [1] (same subject, after ten MR treatments over one month, scale of zero to ten), the “pain level after treatment” value is reported as “two”. Further, the decrease in stiffness in the series with injured patients (setting [5]) is 50%. In addition, in the series with injured patients (setting [6]), the “decrease in pain level” value was 75% and the decrease in stiffness is on record as 50%. In addition, the “elimination of pain and stiffness” value in the series on injured patients was 100%. In the series with injured patients (setting [7]), the “decrease in pain level” value is recorded as 50% and the decrease in stiffness turned out to be 50%.
As for `CCc1ccc(CCOc2ccc(CC3SC(=O)NC3=O)cc2)nc1` (stereo not drawn) [Actos], the “result of treatment on sensation in feet” value in series [3] was “sensation returned for touch, texture, and temperature”.
